Measured values as given in patent US20230184744A1, “INTERTUMORAL HOMOGENEITY DETERMINED BY MiCK ASSAY” (Pierian Biosciences, LLC, priority 2014, published 2023).
Numbered stars: 1 amine (or outer) side, 2 acyl side, 3 side chain; on linkers, the order of the positions; unused ones are H or OH. Bridge positions count the residues as written; N and C are the ends. Square brackets hold non-standard residues; d marks the D form. Peptide text beside a SMILES is read from it. I, II: the chains in the order shown. Actinocin(9to1) = Cc1c2oc3c(C)ccc(C(=O)[*:1])c3nc-2c(C(=O)[*:2])c(N)c1=O; NMeV = CN[C@H](C(=O)O)C(C)C; Sar = CNCC(=O)O

Experiments:
[1] = test system: Pancreatic islet cell cancer (lymph node); assay: MiCK assay, drug-induced apoptosis, Table 4 tumor A1; conditions: Table 4 tumor A1: Pancreatic islet cell cancer (lymph node); 48 hours with drug
Description: (§3) After overnight incubation, chemotherapy drugs were added to the wells of the 96-well plate in 5 μL aliquots or to the wells of a 384-well plate in 2.5 μL aliquots using an automated pipettor. The number of drugs or drug combinations and the number of concentrations tested depended on the number of viable malignant cells that were isolated from the tumor specimen. The drug concentrations, determined by molarity, were those indicated by the manufacturer as the desired blood level concentration plus or minus one serial dilution if enough cells were available.
(§4) Following drug addition, the plate was incubated for 30 min. at 37° C. in a 5% carbon dioxide humidified atmosphere incubator. Each well was then overlayed with sterile mineral oil, and the plate was placed into the incubator chamber of a microplate spectrophotometric reader. The optical density at 600 nanometers was read and recorded every 5 minutes over a period of 48 hours.
(§5) Patients: Three patients were included in this study. Two tumor samples from different tumor sites were collected from each patient. Both samples from each patient were collected on the same day.

[2] = test system: Lung small cell carcinoma (site A); assay: MiCK assay, drug-induced apoptosis, Table 4 tumor C1; conditions: Table 4 tumor C1: Lung small cell carcinoma (site A); 48 hours with drug
Description: as §3, §4, §5

[3] = test system: Lung adenocarcinoma (pleural effusion); assay: MiCK assay, drug-induced apoptosis, Table 4 tumor B1; type: cell-based, human; conditions: Table 4 tumor B1: Lung adenocarcinoma (pleural effusion); 48 hours with drug
Description: (§1) Data were obtained optically using Mie light-scattering.
Patients: Three patients were included in this study. […] Patient A was diagnosed with pancreatic islet cell cancer; sample 1 was collected from lymph node and sample 2 was collected from the primary tumor. Patient B was diagnosed with lung cancer NSCLC adenocarcinoma; sample 1 was collected from pleural effusion and sample 2 was collected from solid tumor. […] Ages of the patients ranged from 51-79 years old with an average age of 65 years. One patient was […] and two were female.

[4] = test system: Pancreatic islet cell cancer (primary tumor); assay: MiCK assay, drug-induced apoptosis, Table 4 tumor A2; conditions: 48 hours with drug
Description: as §3
(§6) Following drug addition, the plate was incubated for 30 min. at 37° C. in a 5% carbon dioxide humidified atmosphere incubator. Each well was then overlayed with sterile mineral oil, and the plate was placed into the incubator chamber of a microplate spectrophotometric reader. The optical density at 600 nanometers was read and recorded every 5 minutes over a period of 48 hours. Optical density increases, which correlates with apoptosis, were converted to kinetic units (KU) of apoptosis by a proprietary software ProApo with a formula described in the Kravtsov reference incorporated by reference (i.e. Kravtsov V. et al. “Use of the Microculture Kinetic Assay of apoptosis to determine chemosensitivities of leukemias.” Blood 1998; 92:968-980).
(§7) Purified tumor cells were cultured for 48 hours with individual drugs, and drug-induced apoptosis was measured using the MiCK assay as described in Example 1. Data were obtained optically using Mie light-scattering.

[5] = test system: NSCLC, bilateral well-differentiated adenocarcinoma (site 1A); assay: MiCK assay, drug-induced apoptosis, Table 3 tumor B1; type: cell-based, human; conditions: Table 3 tumor B1: NSCLC, bilateral well-differentiated adenocarcinoma (site 1A); 48 hours with drug
Description: as §1
(§2) Do a test well. […] Look at the well under the inverted microscope. […] Repeat until optimal cell concentration is found. Plate the cells into the wells.

[6] = test system: NSCLC, bilateral well-differentiated adenocarcinoma (site 1B); assay: MiCK assay, drug-induced apoptosis, Table 3 tumor B2; type: cell-based, human; conditions: Table 3 tumor B2: NSCLC, bilateral well-differentiated adenocarcinoma (site 1B); 48 hours with drug
Description: as §1, §2

[7] = test system: NSCLC, multi-focal, recurrent adenocarcinoma (site A); assay: MiCK assay, drug-induced apoptosis, Table 3 tumor C1; type: cell-based, human; conditions: Table 3 tumor C1: NSCLC, multi-focal, recurrent adenocarcinoma (site A); 48 hours with drug
Description: as §1, §2

[8] = test system: Probable mesothelioma (pleural effusion); assay: MiCK assay, drug-induced apoptosis, Table 3 tumor A2; type: cell-based, human; conditions: Table 3 tumor A2: Probable mesothelioma (pleural effusion); 48 hours with drug
Description: as §1
When the optimal cell concentration is reached, put the cells in the plate and incubate overnight in the incubating chamber of the incubator (37° C.).

[9] = test system: NSCLC, multi-focal, recurrent adenocarcinoma (right lung); assay: MiCK assay, drug-induced apoptosis, Table 3 tumor D1; type: cell-based, human; conditions: Table 3 tumor D1: NSCLC, multi-focal, recurrent adenocarcinoma (right lung); 48 hours with drug
Description: as §1, §2

[10] = test system: Lung adenocarcinoma (site B); assay: MiCK assay, drug-induced apoptosis, Table 4 tumor C2; conditions: Table 4 tumor C2: Lung adenocarcinoma (site B); 48 hours with drug
Description: as §3, §6, §7

[11] = test system: NSCLC, multi-focal, recurrent adenocarcinoma (lymph node); assay: MiCK assay, drug-induced apoptosis, Table 3 tumor D2; type: cell-based, human; conditions: Table 3 tumor D2: NSCLC, multi-focal, recurrent adenocarcinoma (lymph node); 48 hours with drug
Description: as §1, §2

[12] = test system: NSCLC, multi-focal adenocarcinoma (site A); assay: MiCK assay, drug-induced apoptosis, Table 3 tumor E1; type: cell-based, human; conditions: Table 3 tumor E1: NSCLC, multi-focal adenocarcinoma (site A); 48 hours with drug
Description: as §1, §2

Compound | kinetic units (KU) of apoptosis [1] [KU] | kinetic units (KU) of apoptosis [2] [KU] | kinetic units (KU) of apoptosis [5] [KU] | kinetic units (KU) of apoptosis [6] [KU] | kinetic units (KU) of apoptosis [8] [KU] | also measured
O=NN(CCCl)C(=O)NC1CCCCC1 [CCNU] | 1.00 | 0.90 | – | – | – | –
O=C1c2c(O)ccc(O)c2C(=O)c2c(NCCNCCO)ccc(NCCNCCO)c21 [Mitoxantrone] | 0.82 | 1.60 | – | – | – | kinetic units (KU) of apoptosis [3]: 2.30 KU
CCCCCOC(=O)Nc1nc(=O)n([C@@H]2O[C@H](C)[C@@H](O)[C@H]2O)cc1F [Xeloda] | 0.42 | – | – | – | – | kinetic units (KU) of apoptosis [4]: 0.90 KU
CO[C@@]12[C@H](COC(N)=O)C3=C(C(=O)C(C)=C(N)C3=O)N1C[C@@H]1N[C@@H]12 [Mitomycin] | 1.04 | 6.30 | 1.20 | 1.00 | 1.00 | kinetic units (KU) of apoptosis [3]: 0.90 KU; kinetic units (KU) of apoptosis [7]: 0.00 KU; kinetic units (KU) of apoptosis [9]: 0.60 KU
CNC(=O)c1cc(Oc2ccc(NC(=O)Nc3ccc(Cl)c(C(F)(F)F)c3)cc2)ccn1 [Sorafenib] | 1.57 | – | – | – | – | –
Nc1ncn([C@@H]2O[C@H](CO)[C@@H](O)[C@H]2O)c(=O)n1 [Vidaza] | 1.00 | – | – | – | – | –
Nc1nc(Cl)nc2c1ncn2[C@H]1C[C@H](O)[C@@H](CO)O1 [Cladribine] | 0.61 | – | – | – | – | –
C/C(=C\c1csc(C)n1)[C@@H]1C[C@@H]2O[C@]2(C)CCC[C@H](C)[C@H](O)[C@@H](C)C(=O)C(C)(C)[C@@H](O)CC(=O)N1 [Ixabepilone] | 1.00 | – | – | – | – | –
O=c1[nH]cc(F)c(=O)[nH]1 [5FU, 5-Fluorouracil] | 0.42 | – | – | – | – | –
Cc1ccc(NC(=O)c2ccc(CN3CCN(C)CC3)cc2)cc1Nc1nccc(-c2cccnc2)n1 [Gleevec, imatinib] | 0.39 | 0.00 | – | – | – | –
CC(=O)[C@]1(O)Cc2c(O)c3c(c(O)c2[C@@H](O[C@H]2C[C@H](N)[C@H](O)[C@H](C)O2)C1)C(=O)c1ccccc1C3=O [Idarubicin] | 1.22 | 8.00 | 1.20 | 1.10 | 4.00 | kinetic units (KU) of apoptosis [10]: 3.00 KU; kinetic units (KU) of apoptosis [7]: 0.90 KU; kinetic units (KU) of apoptosis [9]: 1.30 KU
Bleomycin | – | – | 1.90 | 1.30 | 1.00 | –
CN(N=O)C(=O)N[C@@H](C=O)[C@@H](O)[C@H](O)[C@H](O)CO [Streptozocin] | 0.23 | – | – | – | – | kinetic units (KU) of apoptosis [4]: 0.0 KU
Nc1nc2[nH]cc(CCc3ccc(C(=O)N[C@@H](CCC(=O)O)C(=O)O)cc3)c2c(=O)[nH]1 [Alimta, Pemetrexed] | 0.22 | 1.40 | 1.40 | 1.60 | 1.20 | kinetic units (KU) of apoptosis [11]: 0.60 KU; kinetic units (KU) of apoptosis [10]: 0.70 KU; kinetic units (KU) of apoptosis [7]: 0.80 KU; kinetic units (KU) of apoptosis [9]: 0.70 KU
N[C@@H](Cc1ccc(N(CCCl)CCCl)cc1)C(=O)O [Melphalan] | 0.57 | – | – | – | – | kinetic units (KU) of apoptosis [3]: 3.10 KU
CC[C@]1(O)C[C@@H]2CN(CCc3c([nH]c4ccccc34)[C@@](C(=O)OC)(c3cc4c(cc3OC)N(C)[C@H]3[C@@](O)(C(=O)OC)[C@H](OC(C)=O)[C@]5(CC)C=CCN6CC[C@]43[C@@H]65)C2)C1 [Vinblastine] | 1.00 | 3.10 | – | – | – | kinetic units (KU) of apoptosis [10]: 2.00 KU
O=P1(NCCCl)OCCCN1CCCl (stereo not shown) [4HI (Ifosfamide), Ifosfamide] | 3.01 | 1.50 | 2.70 | 0.70 | 3.40 | kinetic units (KU) of apoptosis [3]: 2.40 KU; kinetic units (KU) of apoptosis [11]: 1.20 KU; kinetic units (KU) of apoptosis [12]: 0.10 KU; kinetic units (KU) of apoptosis [7]: 0.50 KU
Cn1c(CCCC(=O)O)nc2cc(N(CCCl)CCCl)ccc21 [Bendamustine] | 1.39 | – | – | – | – | –
O=NN(CCCl)C(=O)NCCCl [Carmustine] | 0.82 | 3.00 | – | – | – | kinetic units (KU) of apoptosis [3]: 1.20 KU; kinetic units (KU) of apoptosis [10]: 0.50 KU
Cc1c2oc3c(C)ccc(C(=O)N[C@@H]4C(=O)N[C@H](C(C)C)C(=O)N5CCC[C@H]5C(=O)N(C)CC(=O)N(C)[C@@H](C(C)C)C(=O)O[C@@H]4C)c3nc-2c(C(=O)N[C@@H]2C(=O)N[C@H](C(C)C)C(=O)N3CCC[C@H]3C(=O)N(C)CC(=O)N(C)[C@@H](C(C)C)C(=O)O[C@@H]2C)c(N)c1=O [Dactinomycin] (I: T[dV]P[Sar][NMeV] / II: T[dV]P[Sar][NMeV]; ester I:1-I:C, II:1-II:C; linker I:N-II:N via Actinocin(9to1)) | – | 7.70 | 1.20 | 0.90 | 4.70 | kinetic units (KU) of apoptosis [3]: 2.70 KU; kinetic units (KU) of apoptosis [10]: 3.00 KU; kinetic units (KU) of apoptosis [9]: 0.90 KU
CN(C)/N=N/c1[nH]cnc1C(N)=O [Dacarbazine] | 1.31 | – | – | – | – | kinetic units (KU) of apoptosis [4]: 0.00 KU
Cn1nnc2c(C(N)=O)ncn2c1=O [Temozolomide] | 0.62 | – | – | – | – | kinetic units (KU) of apoptosis [4]: 1.22 KU
CC(C)C[C@H](NC(=O)[C@H](Cc1ccccc1)NC(=O)c1cnccn1)B(O)O [Velcade, Bortezomib] | 0.79 | 1.60 | 2.00 | 2.00 | 1.10 | kinetic units (KU) of apoptosis [3]: 3.40 KU; kinetic units (KU) of apoptosis [10]: 1.80 KU; kinetic units (KU) of apoptosis [7]: 0.20 KU; kinetic units (KU) of apoptosis [9]: 0.60 KU
COc1cccc2c1C(=O)c1c(O)c3c(c(O)c1C2=O)C[C@@](O)(C(C)=O)C[C@@H]3O[C@H]1C[C@H](N)[C@H](O)[C@H](C)O1 [Daunorubicin] | – | 8.10 | 1.40 | 1.40 | 3.80 | –
C#Cc1cccc(Nc2ncnc3cc(OCCOC)c(OCCOC)cc23)c1 [Tarceva] | 0.66 | 0.00 | 0.60 | 0.60 | 0.80 | kinetic units (KU) of apoptosis [10]: 0.70 KU; kinetic units (KU) of apoptosis [9]: 0.5 KU
